Experimental data published in patent publication US20250345275A1, “Micromolar Halogenated Fluorescein Assists in Full Skin-Thickness Wound Healing” (priority 2024, published 2025).
“And” between values parts separate entries of the source, which are not always exact repeats. Equal entries are not always repeated. “Also recorded” adds a separate entry of the source.

Assays:
[1] = Body weight, survival, adverse events and organ examination in mice with full-thickness wounds; assay type: in vivo, BALB/c mice; conditions: for loss of body weight: 3 and 7 days post-injury (FIG. 1A)
Description: Animals: The Institutional Animal Care and Use Committee of the University of Texas Medical Branch in Galveston (UTMB) approved all protocols and studies were conducted in accordance with animal welfare regulations. Healthy 7-week-old male BALB/c mice (N=58) (strain 028, Charles River Laboratories, Houston, Texas, USA) 18-22 g were socially housed in temperature-and light-controlled facilities at UTMB with free access to food and water. Animals were acclimatized for one week before surgical procedures.
(§1) A Balb/C mice excision model was used with a cutaneous full-thickness injury made by a 6-mm diameter punch biopsy. The mice were 7-weeks old and 52 animals were used in the studies discussed herein.
(§2) Animals were administered the RB-containing PF-127-containing hydrogel every other day. A total of three animal treatment groups were studied along with two control groups. one group received vehicle plus light treatment, whereas the other group received vehicle without light. One treatment group of mice received 0.1% RB-containing hydrogel with irradiation for 30 minutes using monochromatic green light (MGL), λ=532 nm at a distance of 2.5 cm that provided […] and a dose of 35J/cm^2. A second treatment group also received 0.1% RB-containing hydrogel, but without MGL irradiation. The third treatment group received 0.01% RB-containing hydrogel without MGL irradiation.
(§3) Primary outcomes assessed safety through analysis of full complete blood count (CBC), comprehensive blood chemistry, body and organ weight. Secondary outcomes analyzed wound closure, epidermal water loss, erythema, and comprehensive wound histology.
(§4) In the primary outcome and measures and observations, the treated animals and a control group received a full CBC and comprehensive blood chemistry panel, as well as observations of body weight food consumption, and organ appearance. Secondarily, wound closure, epidermal water loss erythema and wound histology were examined.
(§5) to determine the effects of rose bengal on blood parameters, blood samples were collected at euthanasia through cardiac puncture and were analyzed for complete blood count using an Abaxis VETSCAN® HM5 Hematology Analyzer Allied Analytic, LLC., Tampa, FL. The blood components analyzed included: white blood cells [WBC], lymphocytes [LYMPH], monocytes [MONO], neutrophils [NEUT], red blood cells [RBC], hemoglobin [HGB], hematocrit [HCT], mean corpuscle volume [MCV], mean corpuscle hemoglobin [MCH], mean corpuscle hemoglobin concentration [MCHC], platelets [PLT], and mean platelet volume [MPV]. Blood chemistry was also analyzed using an Abaxis VETSCAN® VS2 Chemistry Analyzer—Diagnostics to determine liver and Pancreas function through Albumin [ALB], Alkaline phosphatase [ALP], Alanine aminotransferase [ALT], Total bilirubin [tBIL], Total protein [TPRT], Globulin [GLOB], and Amylase [AMY]. Glucose & electrolyte levels were determined by measuring Glucose [GLU], Calcium [CA], Phosphorus [PHOS], Sodium [NA], and Potassium [K]. Kidney Function was assessed through Creatinine [CRE] and Blood urea nitrogen [BUN] levels.

[2] = Complete blood count and blood chemistry panel; assay type: in vivo, BALB/c mice
Description: as §3, §4, §5

[3] = tested on: full-thickness cutaneous wounds; assay: Transepidermal water loss (TEWL) over the wound, DermaLab Combo; assay type: in vivo, BALB/c mice; conditions: 0.01% RBS, no irradiation; for TEWL relative to usual (pre-injury) range: day 14 post-injury (FIG. 2B); for TEWL compared with vehicle alone: day 14 post-injury, p<0.0001 (FIG. 2B)
Description: (§6) Animals were placed under general anesthesia and a 10-mm diameter TEWL probe was placed directly over each wound ensuring uniform coverage and forming a seal immediately around the wound. Following environmental normalization to ambient temperature and relative humidity, TWEL was calculated at […]. A minimum of three TWEL measurements were obtained for each full-thickness wound and uninjured skin area. A color sensitive 7-mm diameter probe, insensitive to ambient light, was then placed over each wound to measure erythema; four measures were obtained for each wound. All wound erythema calculations were normalized to uninjured skin and reported as an index value over time.
as §6, with “At each time point prior to euthanasia, transepidermal water loss (TEWL) and wound erythema indices were measured using the validated DermaLab combo system (CortexTechnologies, Hadsund, Denmark). Animals” for “Animals”, “TEWL” for “TWEL”

[4] = tested on: full-thickness cutaneous wounds; assay: Wound erythema index, DermaLab Combo; assay type: in vivo, BALB/c mice
Description: as §6
as §6, with “At each time point prior to euthanasia, transepidermal water loss (TEWL) and wound erythema indices were measured using the validated DermaLab combo system (CortexTechnologies, Hadsund, Denmark). Animals” for “Animals”, “TEWL” for “TWEL”

[5] = tested on: full-thickness cutaneous wounds; assay: Wound closure by planimetry of digital images; assay type: in vivo, BALB/c mice; conditions: for wound closure compared with vehicle alone: 0.01% RB, no irradiation, day 3 post-injury (FIG. 4)
Description: as §1, §2
Before surgery, animals received buprenorphine (0.1 mg kg^−1) for pre-procedural analgesia, and inhaled isoflurane (0.2-1.0%) was continuously administered throughout the procedure. The dorsum of the animal was shaved, a depilatory cream was applied to completely remove all dorsal hair, and the area was scrubbed with betadine antiseptic. The animal was laid in the right lateral decubitus position and using forceps, the dorsal skin was stretched, and a 6-mm punch biopsy was used to create bilateral full-thickness cutaneous wounds. Next, a 0.5 mm-thick silicone ring was sutured in place through the panniculus carnosus around each wound to ensure wounds healed primarily through re-epithelialization.
Animals were then randomized into treatment groups as follows: (1) Saline control in the dark, (2) Saline control with MGL irradiation, (3) Hydrogel vehicle in the dark, (4) Hydrogel vehicle with MGL irradiation, (5) RB in the dark, and (6) RB with MGL irradiation. Treatment was applied directly to the wound bed (800 uL per wound) and spread using a sterile surgical spatula to ensure even and uniform thickness over the wound.
Animals were then placed in a separate light-sealed and heated enclosure in a sternal position to expose dorsal wounds and remained under general isoflurane anesthesia. All other exposed portions of the body were then covered with sterile wrap to expose only the wounds. […] Animals were euthanized at 3-, 7-, and 14-days post-injury when wound healing parameters were assessed.
After initial surgery and at each study time point post-injury, color digital images were obtained for each wound. […] Wound planimetry was calculated using ImageJ software (ver. 1.53) by tracing wound edges yielding a surface area in […]. Wound closure was calculated as follows: […]

[6] = tested on: full-thickness cutaneous wounds; assay: Tissue ROS generation in full-thickness injury; assay type: in vivo, Balb/c mice; conditions: RB phototherapy
Description: Following functional and planimetric measurements, animals were euthanized and the dorsal skin, inclusive down to underlying facia and dorsal musculature, was excised; care was employed to not disrupt any open wound post-mortem and maintain tissue integrity. The left-side wound and surrounding uninjured skin was directly transferred into a flat position histology cassette and the right-side wound was immediately snap-frozen in liquid nitrogen for reactive oxygen species and molecular analyses. Histology cassettes were then immersed in 10% neutral buffer formalin for 72 hours and subsequently placed in 70% ethanol thereafter. Uninjured skin tissue for each animal was also collected and preserved for future analyses.
Data are presented as mean±SD with n=3-6 animals per group

[7] = Tolerated bolus dose on intravasation after intratumoral PV-10; assay type: in vivo; conditions: equivalent of the 1500 mg bolus
Description: The wounds were treated with an aqueous pharmaceutical composition prepared using a PV-10®-based rose bengal formulation. PV-10® is a sterile, non-pyrogenic 10% solution of disodium RB in 0.9% saline for injection. Using PV-10®, as its RB source, RB has been tolerated at a bolus dose of 1500 mg upon intravasation when delivered intratumorally; this equates to an exposure of approximately 300 mg/L in the bloodstream (300 μM RB).

[8] = PV-10 as RB source, delivered intratumorally; cited from earlier work
[9] = non-medical grade rose bengal, photoactivation with 550 nm MGL; cited from earlier work
[10] = tested on: full-thickness cutaneous wounds; assay: Number of blood vessels in the wound area (smooth muscle actin staining); assay type: in vivo, BALB/c mice; conditions: 0.01% RBS in vehicle, p<0.05 (FIG. 6); group not clearly stated
[11] = 0.01% RB every other day without photoactivation
[12] = 0.1% RB every other day with or without photoactivation
[13] = 0.1% RB every other day with or without photoactivation, out to 7 days
[14] = 0.01% RBS, no irradiation, day 7 post-injury, p<0.0001 (FIG. 3B)
[15] = 0.01% RBS, no irradiation, day 14 post-injury

Which adverse events [1, 11] does the source give for `O=C1OC2(c3cc(I)c(O)c(I)c3Oc3c2cc(I)c(O)c3I)c2c(Cl)c(Cl)c(Cl)c(Cl)c21` [RB, 4,5,6,7-tetrachloro-2′, 4′, 5′, 7′-tetraiodo-fluorescein] here?
Its adverse events is “no adverse events noted”.

What about the “survival through time course” value ([1]; 0.01% RB every other day without photoactivation, n=33) of the same compound?
Its value is “All animals survived”.

And the Mean body mass ([1]; 0.01% RB every other day without photoactivation, throughout treatment)?
Its Mean body mass is “maintained”.

And the body weight ([1]; 0.01% RB, no irradiation, day 14 post-injury (between day 7 and 14))?
The body weight was “slight weight gains; also recorded: gained weight; also recorded: slight increase”.

What about the adverse events [1, 12] of the same compound?
The adverse events was “no adverse events noted”.

And the “survival through time course” value ([1]; 0.1% RB every other day with or without photoactivation, n=19)?
Its value is “All animals survived”.

What about the “mean body mass loss” value [1, 13] of the same compound?
Its value is roughly 5%.

And the body weight ([1]; 0.1% RB with and without irradiation, first seven days post-injury)?
The body weight was “lost weight”.

What about the “Body weight and gross examination of internal organs” value ([1]; at euthanasia) of the same compound?
Its value is “did not show any signs of toxicity”.

What about the “loss in body or organ weight” value ([1]; either treatment regimen (single or multidose)) of the same compound?
The value was “No loss”.

And the “toxicity / safety for wound healing applications” value ([1]; single (photoactivated) and multidose (ambient light, covered) topical application to full-thickness wounds)?
Its value is “did not illicit toxicity”.

What about the body weight ([1]; vehicle containing 0.01% RB, no irradiation, days 3 and 7 post-injury (FIG. 1B)) of the same compound?
Its body weight is “constant weights; also recorded: maintained their weights”.

And the other chemistries [2, 11]?
The other chemistries was “within normal ranges”.

And the “Erythrocytes and platelets size, morphology, count” value ([2]; 0.01% RB every other day without photoactivation, out to 14 days)?
The value was “normal”.

What about the Leukocyte count ([2]; 0.01% RB every other day without photoactivation, out to 14 days post-injury/treatment) of the same compound?
The Leukocyte count was “normal”.

And the mean amylase ([2]; 0.01% RB every other day without photoactivation, all groups)?
Its mean amylase is “Elevated”.

And the other chemistries [2, 12]?
The other chemistries was “within normal ranges”.

And the “Erythrocytes and platelets size, morphology, count” value [2, 13]?
Its value is “normal”.

And the Leukocyte count ([2]; 0.1% RB every other day with or without photoactivation, out to 7 days post-injury)?
The Leukocyte count was “normal”.

And the mean amylase ([2]; 0.1% RB every other day with or without photoactivation, all treated groups)?
Its mean amylase is “Elevated”.

What about the “TEWL relative to usual (pre-injury) range” value [3] of the same compound?
Its value is “about at the normal level”.

And the “TEWL compared with vehicle alone” value [3]?
The value was “significantly reduced”.

What about the “erythema index compared with vehicle alone” value [4, 14] of the same compound?
Its value is “significantly increased”.

What about the “erythema, day 3 versus day 7” value ([4]; 0.1% RB, days 3 and 7 post injury (FIG. 3A)) of the same compound?
Its value is “about the same”.

What about the “wound closure compared with vehicle alone” value [5] of the same compound?
The value was “accelerates wound closure”.

What about the “wound closure compared with saline- or vehicle-treated wounds” value ([5]; RB with or without MGL irradiation, 3 and 7 days after injury) of the same compound?
Its value is “significantly closes full-thickness wounds faster”.

What about the “wound closure compared with every other treatment group” value ([5]; photoactivated RB, 14 days post-injury, p<0.05) of the same compound?
The value was “significantly increased wound closure”.

What about the “tissue ROS” value ([6]; 3 days post-injury, versus all other treatments) of the same compound?
The value was “significantly increased tissue ROS”.

What about the “tissue ROS” value ([6]; day 14) of the same compound?
Its value is “abates to nominal levels”.

And the “tissue ROS” value ([6]; throughout 7 days, versus all other treatments)?
Its value is “sustained”.

What about the “exposure in the bloodstream” value [7] of the same compound?
Its value is “approximately 300 mg/L and 300 μM”.

And the “tolerated bolus dose upon intravasation” value [8]?
The value was 1500 mg.

What about the wound closure [9] of the same compound?
Its wound closure is “accelerates wound closure”.

What about the wound healing [9] of the same compound?
The wound healing was “improves wound healing”.

For `O=C([O-])c1c(Cl)c(Cl)c(Cl)c(Cl)c1-c1c2cc(I)c(=O)c(I)c-2oc2c(I)c([O-])c(I)cc12.[Na+].[Na+]` [RBS, rose bengal disodium], which “loss of body weight” value ([1]; 0.1% RBS with irradiation (MGL)) is on record?
The value was “approximately 5%”.

And the “loss of body weight” value ([1]; 0.1% RBS without irradiation)?
Its value is “approximately 5%”.

And the “TEWL relative to usual (pre-injury) range” value [3]?
The value was “back at their usual range”.

And the “TEWL compared with vehicle alone” value [3]?
Its value is “statistically significant difference”.

And the “erythema index compared with vehicle alone” value [4, 14]?
Its value is “statistically significant difference”.

What about the “erythema index compared with vehicle alone” value [4, 15] of the same compound?
The value was “not statistically different”.

What about the “erythema index relative to usual values” [4, 15] of the same compound?
Its value is “very similar to the usual erythema index values”.

And the “wound closure compared with vehicle alone” value [5]?
The value was “statistically significantly less”.

And the “number of blood vessels, day 7 versus day 3 post-injury” value [10]?
Its value is “statistically greater”.
